Assay results taken from patent US20120045393A1 (priority 2009, published 2012).
Non-standard residues stand in square brackets, D forms with d. Residues, ends and D or L forms follow the SMILES beside them. *: point of attachment. DOTA = O=C(O)CN1CCN(CC(=O)O)CCN(CC(=O)*)CCN(CC(=O)O)CC1; Bpa = N[C@@H](Cc1ccc(C(=O)c2ccccc2)cc1)C(=O)O; d2Nal = N[C@H](Cc1ccc2ccccc2c1)C(=O)O; 3Pal = N[C@@H](Cc1cccnc1)C(=O)O; azaGly = NNC(=O)O; Sar = CNCC(=O)O
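Also: Cell-associated radioactivity on confluent EFO-27 monolayers in 96-well plates, measured by microplate scintillation counting.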

What follows are compounds tested on LHRH binding sites on human ovarian cancer cells (EFO-27). Settings: not given.
In the case of `CN(CC(=O)N[C@@H](Cc1c[nH]cn1)C(=O)N[C@@H](Cc1c[nH]c2ccccc12)C(=O)N[C@@H](CO)C(=O)N[C@@H](Cc1c[nH]cn1)C(=O)N[C@H](CCCNC(=N)N)C(=O)N[C@@H](Cc1c[nH]c2ccccc12)C(=O)N[C@@H](Cc1c[nH]c2ccccc12)C(=O)N1CCC[C@H]1C(=O)NNC(N)=O)C(=O)CN1CCN(CC(=O)O)CCN(CC(=O)O)CCN(CC(=O)O)CC1` [BRU-2724] (HELM PEPTIDE1{[O=C(O)CN1CCN(CC(=O)O)CCN(CC(=O)[*:2])CCN(CC(=O)O)CC1].[Sar].H.W.S.H.[dR].W.W.P.[O=C(NN[*:1])[*:2]].[am]}$$$$V2.0), the EC50 is reported as 2.67 µM. Compound `CNCC(=O)N[C@@H](CCCNC(=N)N)C(=O)N[C@@H](Cc1c[nH]c2ccccc12)C(=O)N[C@@H](CO)C(=O)N[C@@H](Cc1c[nH]cn1)C(=O)N[C@H](CCCNC(=N)N)C(=O)N[C@@H](Cc1c[nH]c2ccccc12)C(=O)N[C@@H](Cc1ccc(C(=O)c2ccccc2)cc1)C(=O)N1CCC[C@H]1C(=O)NCCCCNC(=O)CN1CCN(CC(=O)O)CCN(CC(=O)O)CCN(CC(=O)O)CC1` [compound 3041] has an EC50 of 0.36 ± 0.02 µM. In the case of `N=C(N)NCCC[C@@H](NC(=O)[C@H](Cc1c[nH]cn1)NC(=O)[C@H](CO)NC(=O)[C@H](Cc1c[nH]c2ccccc12)NC(=O)[C@H](Cc1c[nH]cn1)NC(=O)[C@H](Cc1ccc2ccccc2c1)NC(=O)CN1CCN(CC(=O)O)CCN(CC(=O)O)CCN(CC(=O)O)CC1)C(=O)N[C@@H](Cc1c[nH]c2ccccc12)C(=O)N[C@@H](Cc1ccc(C(=O)c2ccccc2)cc1)C(=O)N1CCC[C@H]1C(=O)NNC(N)=O` [BRU-2809], the EC50 is reported as 3.54 µM. `CN(CC(=O)N[C@@H](Cc1c[nH]cn1)C(=O)N[C@@H](Cc1c[nH]c2ccccc12)C(=O)N[C@@H](CO)C(=O)N[C@@H](Cc1c[nH]cn1)C(=O)N[C@H](CCCNC(=N)N)C(=O)N[C@@H](Cc1c[nH]c2ccccc12)C(=O)N[C@@H](Cc1ccc(C(=O)c2ccccc2)cc1)C(=O)N1CCC[C@H]1C(=O)NNC(N)=O)C(=O)c1ccc(CNC(=O)CN2CCN(CC(=O)O)CCN(CC(=O)O)CCN(CC(=O)O)CC2)cc1` [compound 2727] was tested, and the EC50 was 0.65 µM. Compound `CN(NC(=O)[C@@H]1CCCN1C(=O)[C@H](Cc1ccc(C(=O)c2ccccc2)cc1)NC(=O)[C@H](Cc1c[nH]c2ccccc12)NC(=O)[C@@H](CCCNC(=N)N)NC(=O)[C@H](Cc1c[nH]cn1)NC(=O)[C@H](CO)NC(=O)[C@H](Cc1c[nH]c2ccccc12)NC(=O)[C@H](CCCNC(=N)N)NC(=O)[C@@H](Cc1ccc2ccccc2c1)NC(=O)CN1CCN(CC(=O)O)CCN(CC(=O)O)CCN(CC(=O)O)CC1)C(N)=O` [compound 3021] has an EC50 of 0.5 µM. `CN(CC(=O)N[C@@H](Cc1c[nH]cn1)C(=O)N[C@@H](Cc1c[nH]c2ccccc12)C(=O)N[C@@H](CO)C(=O)N[C@@H](Cc1c[nH]cn1)C(=O)N[C@H](CCCNC(=N)N)C(=O)N[C@@H](Cc1c[nH]c2ccccc12)C(=O)N[C@@H](Cc1ccc(CN)cc1)C(=O)N1CCC[C@H]1C(=O)NNC(N)=O)C(=O)CN1CCN(CC(=O)O)CCN(CC(=O)O)CCN(CC(=O)O)CC1` [BRU-2760] showed an EC50 of 3.55 µM. `CN(CC(=O)N[C@@H](Cc1cccnc1)C(=O)N[C@@H](Cc1c[nH]c2ccccc12)C(=O)N[C@@H](CO)C(=O)N[C@@H](Cc1c[nH]cn1)C(=O)N[C@H](CCCNC(=N)N)C(=O)N[C@@H](Cc1c[nH]c2ccccc12)C(=O)N[C@@H](Cc1ccc(C(=O)c2ccccc2)cc1)C(=O)N1CCC[C@H]1C(=O)NNC(N)=O)C(=O)CN1CCN(CC(=O)O)CCN(CC(=O)O)CCN(CC(=O)O)CC1` [BRU-2818] ({DOTA}-[Sar][3Pal]WSH[dR]W[Bpa]P[azaGly]-NH2) was tested, and the EC50 was 1.62 µM. For `CN(CC(=O)N[C@@H](Cc1c[nH]cn1)C(=O)N[C@@H](Cc1c[nH]c2ccccc12)C(=O)N[C@@H](CO)C(=O)N[C@@H](Cc1c[nH]cn1)C(=O)N[C@H](CCCNC(=N)N)C(=O)N[C@@H](Cc1c[nH]c2ccccc12)C(=O)N[C@@H](Cc1ccc2ccccc2c1)C(=O)N1CCC[C@H]1C(=O)NNC(N)=O)C(=O)CN1CCN(CC(=O)O)CCN(CC(=O)O)CCN(CC(=O)O)CC1` [BRU-2624], the EC50 was 2.01 µM. For `N=C(N)NCCC[C@H](NC(=O)[C@@H](Cc1ccc2ccccc2c1)NC(=O)CN1CCN(CC(=O)O)CCN(CC(=O)O)CCN(CC(=O)O)CC1)C(=O)N[C@@H](Cc1c[nH]c2ccccc12)C(=O)N[C@@H](CO)C(=O)N[C@@H](Cc1c[nH]cn1)C(=O)N[C@H](CCCNC(=N)N)C(=O)N[C@@H](Cc1c[nH]c2ccccc12)C(=O)N[C@@H](Cc1ccc(C(=O)c2ccccc2)cc1)C(=O)N1CCC[C@H]1C(=O)NCCO` [compound 2970], the EC50 was 0.51 µM. With `N=C(N)NCCC[C@H](NC(=O)[C@H](N)Cc1ccc2ccccc2c1)C(=O)N[C@@H](Cc1c[nH]c2ccccc12)C(=O)N[C@@H](CO)C(=O)N[C@@H](Cc1c[nH]cn1)C(=O)N[C@H](CCCNC(=N)N)C(=O)N[C@@H](Cc1c[nH]c2ccccc12)C(=O)N[C@@H](Cc1ccc(C(=O)c2ccccc2)cc1)C(=O)N1CCC[C@H]1C(=O)NCC(=O)NCCCCNC(=O)CN1CCN(CC(=O)O)CCN(CC(=O)O)CCN(CC(=O)O)CC1` [compound 2990] the EC50 was 30.2 ± 8.28 µM. With `N=C(N)NCCC[C@H](NC(=O)[C@@H](Cc1ccc2ccccc2c1)NC(=O)CN1CCN(CC(=O)O)CCN(CC(=O)O)CCN(CC(=O)O)CC1)C(=O)N[C@@H](Cc1c[nH]c2ccccc12)C(=O)N[C@@H](CO)C(=O)N[C@@H](Cc1c[nH]cn1)C(=O)N[C@H](CCCNC(=N)N)C(=O)N[C@@H](Cc1c[nH]c2ccccc12)C(=O)N[C@@H](Cc1ccc(C(=O)c2ccccc2)cc1)C(=O)O` [BRU-3064, DO3A10CM-Dna12-Arg-Trp-Ser-His-Darg-Trp-Bpa4-OH] ({DOTA}-[d2Nal]RWSH[dR]W[Bpa]-OH) the EC50 was 0.72 µM. `CC(C)C[C@H](NC(=O)[C@H](CCCNC(=N)N)NC(=O)[C@@H](Cc1ccc2ccccc2c1)NC(=O)CN1CCN(CC(=O)O)CCN(CC(=O)O)CCN(CC(=O)O)CC1)C(=O)N[C@@H](CO)C(=O)N[C@@H](Cc1c[nH]cn1)C(=O)N[C@H](CCCNC(=N)N)C(=O)N[C@@H](Cc1c[nH]c2ccccc12)C(=O)N[C@@H](Cc1ccc(C(=O)c2ccccc2)cc1)C(=O)N1CCC[C@H]1C(=O)NNC(N)=O` [compound 3108] ({DOTA}-[d2Nal]RLSH[dR]W[Bpa]P[azaGly]-NH2) gave an EC50 of 0.56 µM.

Same assay, conditions: Table 5: modifications of amino acids at positions 1 and 2; in vitro binding on EFO-27 cells
`C[C@@H](C(=O)N[C@@H](Cc1c[nH]cn1)C(=O)N[C@@H](Cc1c[nH]c2ccccc12)C(=O)N[C@@H](CO)C(=O)N[C@@H](Cc1c[nH]cn1)C(=O)N[C@H](CCCNC(=N)N)C(=O)N[C@@H](Cc1c[nH]c2ccccc12)C(=O)N[C@@H](Cc1ccc(C(=O)c2ccccc2)cc1)C(=O)N1CCC[C@H]1C(=O)NNC(N)=O)N(C)C(=O)CN1CCN(CC(=O)O)CCN(CC(=O)O)CCN(CC(=O)O)CC1` [BRU-2736] showed an EC50 of 1.42 µM.

Same assay, conditions: ratio of EC50 to BRU-2813 (EC50=0.33 μM)
With `N=C(N)NCCC[C@H](NC(=O)[C@@H](Cc1ccc2ccccc2c1)NC(=O)CN1CCN(CC(=O)O)CCN(CC(=O)O)CCN(CC(=O)O)CC1)C(=O)N[C@@H](Cc1c[nH]c2ccccc12)C(=O)N[C@@H](CO)C(=O)N[C@@H](Cc1c[nH]cn1)C(=O)N[C@H](CCCNC(=N)N)C(=O)N[C@@H](Cc1c[nH]c2ccccc12)C(=O)N[C@@H](Cc1ccc(C(=O)c2ccccc2)cc1)C(=O)N1C[C@H](c2ccccc2)C[C@H]1C(=O)NNC(N)=O` [BRU-2953] the “binding potency, times lower than BRU-2813” value was 2.
